Measured values as given in ChEMBL document CHEMBL1759836, “Microwave assisted one-pot synthesis of highly potent novel isoniazid analogues” (Bioorg Med Chem Lett, 2011).
≈ marks a conversion by molar mass, not a printed value.

Experiments:
[1] = system: Mycobacterium tuberculosis; test: Antimicrobial activity against Mycobacterium tuberculosis H37Rv by agar dilution method; format: functional
[2] = system: Mycobacterium tuberculosis; test: Antimicrobial activity against multidrug-resisntat Mycobacterium tuberculosis by agar dilution method; format: functional
[3] = Cytotoxicity against african green monkey Vero cells after 72 hrs by MTT assay; format: cell-based; settings: chlorocebus sabaeus
[4] = Selectivity index, ratio of CC50 for african green monkey Vero cells to MIC for Mycobacterium tuberculosis H37Rv; format: functional

| Structure (SMILES) | MIC [1] [µM] | MIC [2] [µM] | CC50 at 72 h [3] [µM] | Selectivity Index [4] |
| --- | --- | --- | --- | --- |
| CC1(C)CC(=O)C2=C(C1)N(NC(=O)c1ccncc1)C1=C(C(=O)CC(C)(C)C1)C2c1ccccc1 | 6.66 (≈ 3.13 µg/mL) |  |  |  |
| Cc1ccccc1C1C2=C(CC(C)(C)CC2=O)N(NC(=O)c2ccncc2)C2=C1C(=O)CC(C)(C)C2 | 3.22 (≈ 1.56 µg/mL) |  |  |  |
| Cc1cccc(C2C3=C(CC(C)(C)CC3=O)N(NC(=O)c3ccncc3)C3=C2C(=O)CC(C)(C)C3)c1 | 6.44 (≈ 3.11 µg/mL) |  |  |  |
| Cc1ccc(C2C3=C(CC(C)(C)CC3=O)N(NC(=O)c3ccncc3)C3=C2C(=O)CC(C)(C)C3)cc1 | 6.44 (≈ 3.11 µg/mL) |  |  |  |
| CC1(C)CC(=O)C2=C(C1)N(NC(=O)c1ccncc1)C1=C(C(=O)CC(C)(C)C1)C2c1ccccc1O | > 12.9 |  |  |  |
| CC1(C)CC(=O)C2=C(C1)N(NC(=O)c1ccncc1)C1=C(C(=O)CC(C)(C)C1)C2c1cccc(O)c1 | > 12.9 |  |  |  |
| CC1(C)CC(=O)C2=C(C1)N(NC(=O)c1ccncc1)C1=C(C(=O)CC(C)(C)C1)C2c1ccc(O)cc1 | 12.9 (≈ 6.25 µg/mL) |  |  |  |
| COc1ccccc1C1C2=C(CC(C)(C)CC2=O)N(NC(=O)c2ccncc2)C2=C1C(=O)CC(C)(C)C2 | 12.5 (≈ 6.25 µg/mL) |  |  |  |
| COc1ccc(C2C3=C(CC(C)(C)CC3=O)N(NC(=O)c3ccncc3)C3=C2C(=O)CC(C)(C)C3)cc1 | 12.5 (≈ 6.25 µg/mL) |  |  |  |
| CN(C)c1ccc(C2C3=C(CC(C)(C)CC3=O)N(NC(=O)c3ccncc3)C3=C2C(=O)CC(C)(C)C3)cc1 | 6.1 (≈ 3.13 µg/mL) |  |  |  |
| CC(C)c1ccc(C2C3=C(CC(C)(C)CC3=O)N(NC(=O)c3ccncc3)C3=C2C(=O)CC(C)(C)C3)cc1 | 1.52 (≈ 0.778 µg/mL) |  |  |  |
| CC1(C)CC(=O)C2=C(C1)N(NC(=O)c1ccncc1)C1=C(C(=O)CC(C)(C)C1)C2c1ccccc1OCc1ccccc1 | < 0.17 | 0.69 (≈ 0.397 µg/mL) | > 109 |  |
| CC1(C)CC(=O)C2=C(C1)N(NC(=O)c1ccncc1)C1=C(C(=O)CC(C)(C)C1)C2c1cccc(OCc2ccccc2)c1 | 0.17 (≈ 0.0979 µg/mL) | 1.35 (≈ 0.777 µg/mL) | > 109 |  |
| CC1(C)CC(=O)C2=C(C1)N(NC(=O)c1ccncc1)C1=C(C(=O)CC(C)(C)C1)C2c1ccc(OCc2ccccc2)cc1 | 0.17 (≈ 0.0979 µg/mL) | 0.69 (≈ 0.397 µg/mL) | > 109 |  |
| COc1cc(C2C3=C(CC(C)(C)CC3=O)N(NC(=O)c3ccncc3)C3=C2C(=O)CC(C)(C)C3)ccc1O | 3.02 (≈ 1.56 µg/mL) |  |  |  |
| COc1ccc(C2C3=C(CC(C)(C)CC3=O)N(NC(=O)c3ccncc3)C3=C2C(=O)CC(C)(C)C3)c(OC)c1OC | 11.2 (≈ 6.25 µg/mL) |  |  |  |
| CC1(C)CC(=O)C2=C(C1)N(NC(=O)c1ccncc1)C1=C(C(=O)CC(C)(C)C1)C2c1ccccc1C(F)(F)F | 0.36 (≈ 0.194 µg/mL) | 1.45 (≈ 0.779 µg/mL) | > 116 |  |
| CC1(C)CC(=O)C2=C(C1)N(NC(=O)c1ccncc1)C1=C(C(=O)CC(C)(C)C1)C2c1cccc(C(F)(F)F)c1 | 0.18 (≈ 0.0968 µg/mL) | 1.45 (≈ 0.779 µg/mL) | > 116 | >645 |
| CC1(C)CC(=O)C2=C(C1)N(NC(=O)c1ccncc1)C1=C(C(=O)CC(C)(C)C1)C2c1ccc(C(F)(F)F)cc1 | 0.36 (≈ 0.194 µg/mL) | 0.74 (≈ 0.398 µg/mL) | > 116 |  |
| CC1(C)CC(=O)C2=C(C1)N(NC(=O)c1ccncc1)C1=C(C(=O)CC(C)(C)C1)C2c1ccc(Cl)cc1 | 0.79 (≈ 0.398 µg/mL) | 1.54 (≈ 0.776 µg/mL) | > 124 |  |
| CC1(C)CC(=O)C2=C(C1)N(NC(=O)c1ccncc1)C1=C(C(=O)CC(C)(C)C1)C2c1ccccc1Br | 0.18 (≈ 0.0987 µg/mL) | 2.84 (≈ 1.56 µg/mL) | > 114 |  |
| CC1(C)CC(=O)C2=C(C1)N(NC(=O)c1ccncc1)C1=C(C(=O)CC(C)(C)C1)C2c1cccc(Br)c1 | 0.73 (≈ 0.4 µg/mL) | 2.84 (≈ 1.56 µg/mL) | < 114 |  |
| CC1(C)CC(=O)C2=C(C1)N(NC(=O)c1ccncc1)C1=C(C(=O)CC(C)(C)C1)C2c1ccc(Br)cc1 | 0.73 (≈ 0.4 µg/mL) | 2.84 (≈ 1.56 µg/mL) | < 114 |  |
| CC1(C)CC(=O)C2=C(C1)N(NC(=O)c1ccncc1)C1=C(C(=O)CC(C)(C)C1)C2c1ccccc1F | 0.41 (≈ 0.2 µg/mL) | 1.59 (≈ 0.775 µg/mL) | > 128 |  |
| CC1(C)CC(=O)C2=C(C1)N(NC(=O)c1ccncc1)C1=C(C(=O)CC(C)(C)C1)C2c1cccc(F)c1 | 0.41 (≈ 0.2 µg/mL) | 0.82 (≈ 0.4 µg/mL) | > 128 |  |
| CC1(C)CC(=O)C2=C(C1)N(NC(=O)c1ccncc1)C1=C(C(=O)CC(C)(C)C1)C2c1ccc(F)cc1 | 0.2 (≈ 0.0975 µg/mL) | 0.2 (≈ 0.0975 µg/mL) | > 128 |  |
| CC1(C)CC(=O)C2=C(C1)N(NC(=O)c1ccncc1)C1=C(C(=O)CC(C)(C)C1)C2c1ccccc1[N+](=O)[O-] | 0.19 (≈ 0.0978 µg/mL) | 1.51 (≈ 0.777 µg/mL) | < 121 |  |
| CC1(C)CC(=O)C2=C(C1)N(NC(=O)c1ccncc1)C1=C(C(=O)CC(C)(C)C1)C2c1cccc([N+](=O)[O-])c1 | 0.77 (≈ 0.396 µg/mL) | 3.03 (≈ 1.56 µg/mL) | < 121 |  |
| CC1(C)CC(=O)C2=C(C1)N(NC(=O)c1ccncc1)C1=C(C(=O)CC(C)(C)C1)C2c1ccc([N+](=O)[O-])cc1 | 0.77 (≈ 0.396 µg/mL) | 3.03 (≈ 1.56 µg/mL) | < 121 |  |
| NNC(=O)c1ccncc1 [ISONIAZID] | 0.73 (≈ 0.1 µg/mL) | 45.6 (≈ 6.25 µg/mL) | > 456 |  |
